Experiments:
[1] = target: Gastrin/cholecystokinin type B receptor (Homo sapiens) (UniProt P32239); assay: CCK2 (human) CEREP ligand profiling; settings: Compound concentration 10.0 uM
[2] = target: Voltage-gated sodium channel (Na+ channel, site 2) (Rattus norvegicus, UniProt F1LQQ7+O08562+O88420+O88457+P04774+P04775+P08104+P15389+P15390+Q62968); assay: Na+ channel (site 2) (rat) CEREP ligand profiling; type: protein assay; settings: compound concentration 10 uM
[3] = system: Tyrosine-protein kinase ABL1 (Homo sapiens), P00519 [F317I]; settings: Compound concentration 1000.0 nM
[4] = system: Tyrosine-protein kinase ABL1 (Homo sapiens), P00519 [F317I]; settings: Compound concentration 1000.0 nM; remark: listed apart in the source
[5] = system: Tyrosine-protein kinase ABL1 (Homo sapiens), P00519 [F317L]; settings: Compound concentration 1000.0 nM
[6] = system: Tyrosine-protein kinase ABL1 (Homo sapiens), P00519 [Q252H]; settings: Compound concentration 1000.0 nM
[7] = target: Activin receptor type-1 (Homo sapiens) (UniProt Q04771); settings: Compound concentration 1000.0 nM
[8] = target: BMP-2-inducible protein kinase (Homo sapiens) (UniProt Q9NSY1); settings: Compound concentration 1000.0 nM
[9] = target: Calcium/calmodulin-dependent protein kinase type 1G (Homo sapiens) (UniProt Q96NX5); settings: Compound concentration 1000.0 nM
[10] = target: Calcium/calmodulin-dependent protein kinase type II subunit beta (Homo sapiens) (UniProt Q13554); settings: Compound concentration 1000.0 nM
Sequence of Calcium/calmodulin-dependent protein kinase type II subunit beta (Homo sapiens) (Q13554 whole entry): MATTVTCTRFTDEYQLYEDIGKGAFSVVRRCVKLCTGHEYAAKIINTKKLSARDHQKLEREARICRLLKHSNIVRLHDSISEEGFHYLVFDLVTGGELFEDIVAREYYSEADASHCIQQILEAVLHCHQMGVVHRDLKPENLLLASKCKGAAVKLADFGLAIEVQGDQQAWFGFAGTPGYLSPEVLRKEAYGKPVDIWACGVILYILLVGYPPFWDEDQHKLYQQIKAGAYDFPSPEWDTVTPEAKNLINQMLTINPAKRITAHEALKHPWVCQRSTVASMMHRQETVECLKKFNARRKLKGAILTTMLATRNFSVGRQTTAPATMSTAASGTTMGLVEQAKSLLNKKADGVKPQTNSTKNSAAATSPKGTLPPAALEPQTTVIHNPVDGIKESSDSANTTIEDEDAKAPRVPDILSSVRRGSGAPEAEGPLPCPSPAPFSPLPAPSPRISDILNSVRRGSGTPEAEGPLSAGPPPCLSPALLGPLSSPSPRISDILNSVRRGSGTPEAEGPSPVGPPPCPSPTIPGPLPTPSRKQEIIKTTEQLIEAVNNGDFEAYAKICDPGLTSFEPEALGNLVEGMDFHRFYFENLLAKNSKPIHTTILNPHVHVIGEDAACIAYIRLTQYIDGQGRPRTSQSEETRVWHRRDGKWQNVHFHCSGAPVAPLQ

[11] = target: Cyclin-dependent kinase 4 (Homo sapiens) (UniProt P11802); settings: Compound concentration 1000.0 nM
[12] = target: Cyclin-dependent kinase 9 (Homo sapiens) (UniProt P50750); settings: Compound concentration 1000.0 nM
[13] = target: Cyclin-dependent kinase-like 1 (Homo sapiens) (UniProt Q00532); settings: Compound concentration 1000.0 nM
[14] = target: Serine/threonine-protein kinase Chk2 (Homo sapiens) (UniProt O96017); settings: Compound concentration 1000.0 nM
[15] = target: Casein kinase I isoform alpha-like (Homo sapiens) (UniProt Q8N752); settings: Compound concentration 1000.0 nM
Sequence of Casein kinase I isoform alpha-like (Homo sapiens) (Q8N752 whole entry, canonical isoform): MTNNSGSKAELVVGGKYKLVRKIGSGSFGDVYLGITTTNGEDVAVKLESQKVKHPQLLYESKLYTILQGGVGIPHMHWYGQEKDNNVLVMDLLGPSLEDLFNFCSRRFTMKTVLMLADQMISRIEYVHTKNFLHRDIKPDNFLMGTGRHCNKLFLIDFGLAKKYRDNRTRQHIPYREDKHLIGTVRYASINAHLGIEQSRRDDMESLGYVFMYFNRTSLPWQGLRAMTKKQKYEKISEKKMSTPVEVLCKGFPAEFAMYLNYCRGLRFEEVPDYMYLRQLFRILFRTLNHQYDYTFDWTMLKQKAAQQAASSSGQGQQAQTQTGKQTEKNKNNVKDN

[16] = target: Death-associated protein kinase 1 (Homo sapiens) (UniProt P53355); settings: Compound concentration 1000.0 nM
[17] = system: Epidermal growth factor receptor (Homo sapiens), P00533 [G719S]; settings: Compound concentration 1000.0 nM
[18] = target: Mitogen-activated protein kinase 1 (Homo sapiens) (UniProt P28482); settings: Compound concentration 1000.0 nM
[19] = system: Fibroblast growth factor receptor 3 (Homo sapiens), P22607 [G697C]; settings: Compound concentration 1000.0 nM
[20] = system: Receptor-type tyrosine-protein kinase FLT3 (Homo sapiens), P36888 [D835V]; settings: Compound concentration 1000.0 nM
[21] = target: G protein-coupled receptor kinase 3 (Homo sapiens) (UniProt P35626); settings: Compound concentration 1000.0 nM
[22] = target: Tyrosine-protein kinase HCK (Homo sapiens) (UniProt P08631); settings: Compound concentration 1000.0 nM
[23] = target: Homeodomain-interacting protein kinase 1 (Homo sapiens) (UniProt Q86Z02); settings: Compound concentration 1000.0 nM
[24] = target: Mitogen-activated protein kinase kinase kinase 3 (Homo sapiens) (UniProt Q99759); settings: Compound concentration 1000.0 nM
[25] = target: Mitogen-activated protein kinase kinase kinase kinase 3 (Homo sapiens) (UniProt Q8IVH8); settings: Compound concentration 1000.0 nM
[26] = system: Hepatocyte growth factor receptor (Homo sapiens), P08581 [Y1235D]; settings: Compound concentration 1000.0 nM
[27] = target: Serine/threonine-protein kinase MRCK alpha (Homo sapiens) (UniProt Q5VT25); settings: Compound concentration 1000.0 nM
[28] = target: Myosin-IIIa (Homo sapiens) (UniProt Q8NEV4); settings: Compound concentration 1000.0 nM
[29] = target: Serine/threonine-protein kinase Nek4 (Homo sapiens) (UniProt P51957); settings: Compound concentration 1000.0 nM
Sequence of Serine/threonine-protein kinase Nek4 (Homo sapiens) (P51957 whole entry, looked up): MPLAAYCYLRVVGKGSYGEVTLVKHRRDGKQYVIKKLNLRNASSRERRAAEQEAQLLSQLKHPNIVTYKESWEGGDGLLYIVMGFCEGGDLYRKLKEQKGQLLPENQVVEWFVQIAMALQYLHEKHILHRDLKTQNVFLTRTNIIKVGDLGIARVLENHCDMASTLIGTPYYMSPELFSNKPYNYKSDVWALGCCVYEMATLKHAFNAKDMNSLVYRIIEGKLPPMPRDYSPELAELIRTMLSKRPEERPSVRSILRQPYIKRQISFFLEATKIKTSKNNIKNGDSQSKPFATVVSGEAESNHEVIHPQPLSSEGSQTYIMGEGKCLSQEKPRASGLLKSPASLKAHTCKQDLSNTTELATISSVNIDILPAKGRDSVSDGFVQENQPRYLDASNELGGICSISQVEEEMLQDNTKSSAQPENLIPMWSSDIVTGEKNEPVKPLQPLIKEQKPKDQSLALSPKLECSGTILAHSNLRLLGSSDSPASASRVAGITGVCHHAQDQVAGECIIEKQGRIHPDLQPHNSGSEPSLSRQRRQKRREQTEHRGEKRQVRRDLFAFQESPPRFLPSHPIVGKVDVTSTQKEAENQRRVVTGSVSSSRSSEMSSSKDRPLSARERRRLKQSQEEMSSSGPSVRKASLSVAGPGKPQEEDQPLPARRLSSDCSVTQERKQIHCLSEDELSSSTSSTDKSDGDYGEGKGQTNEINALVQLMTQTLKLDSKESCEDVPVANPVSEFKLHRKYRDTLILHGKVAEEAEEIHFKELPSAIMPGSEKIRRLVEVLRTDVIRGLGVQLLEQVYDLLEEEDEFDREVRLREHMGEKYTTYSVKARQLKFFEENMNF

[30] = target: Serine/threonine-protein kinase PAK 6 (Homo sapiens) (UniProt Q9NQU5); settings: Compound concentration 1000.0 nM
[31] = target: Phosphatidylinositol 4-phosphate 3-kinase C2 domain-containing subunit beta (Homo sapiens) (UniProt O00750); settings: Compound concentration 1000.0 nM
Sequence of Phosphatidylinositol 4-phosphate 3-kinase C2 domain-containing subunit beta (Homo sapiens) (O00750 whole entry, the tested form may be a part, canonical isoform): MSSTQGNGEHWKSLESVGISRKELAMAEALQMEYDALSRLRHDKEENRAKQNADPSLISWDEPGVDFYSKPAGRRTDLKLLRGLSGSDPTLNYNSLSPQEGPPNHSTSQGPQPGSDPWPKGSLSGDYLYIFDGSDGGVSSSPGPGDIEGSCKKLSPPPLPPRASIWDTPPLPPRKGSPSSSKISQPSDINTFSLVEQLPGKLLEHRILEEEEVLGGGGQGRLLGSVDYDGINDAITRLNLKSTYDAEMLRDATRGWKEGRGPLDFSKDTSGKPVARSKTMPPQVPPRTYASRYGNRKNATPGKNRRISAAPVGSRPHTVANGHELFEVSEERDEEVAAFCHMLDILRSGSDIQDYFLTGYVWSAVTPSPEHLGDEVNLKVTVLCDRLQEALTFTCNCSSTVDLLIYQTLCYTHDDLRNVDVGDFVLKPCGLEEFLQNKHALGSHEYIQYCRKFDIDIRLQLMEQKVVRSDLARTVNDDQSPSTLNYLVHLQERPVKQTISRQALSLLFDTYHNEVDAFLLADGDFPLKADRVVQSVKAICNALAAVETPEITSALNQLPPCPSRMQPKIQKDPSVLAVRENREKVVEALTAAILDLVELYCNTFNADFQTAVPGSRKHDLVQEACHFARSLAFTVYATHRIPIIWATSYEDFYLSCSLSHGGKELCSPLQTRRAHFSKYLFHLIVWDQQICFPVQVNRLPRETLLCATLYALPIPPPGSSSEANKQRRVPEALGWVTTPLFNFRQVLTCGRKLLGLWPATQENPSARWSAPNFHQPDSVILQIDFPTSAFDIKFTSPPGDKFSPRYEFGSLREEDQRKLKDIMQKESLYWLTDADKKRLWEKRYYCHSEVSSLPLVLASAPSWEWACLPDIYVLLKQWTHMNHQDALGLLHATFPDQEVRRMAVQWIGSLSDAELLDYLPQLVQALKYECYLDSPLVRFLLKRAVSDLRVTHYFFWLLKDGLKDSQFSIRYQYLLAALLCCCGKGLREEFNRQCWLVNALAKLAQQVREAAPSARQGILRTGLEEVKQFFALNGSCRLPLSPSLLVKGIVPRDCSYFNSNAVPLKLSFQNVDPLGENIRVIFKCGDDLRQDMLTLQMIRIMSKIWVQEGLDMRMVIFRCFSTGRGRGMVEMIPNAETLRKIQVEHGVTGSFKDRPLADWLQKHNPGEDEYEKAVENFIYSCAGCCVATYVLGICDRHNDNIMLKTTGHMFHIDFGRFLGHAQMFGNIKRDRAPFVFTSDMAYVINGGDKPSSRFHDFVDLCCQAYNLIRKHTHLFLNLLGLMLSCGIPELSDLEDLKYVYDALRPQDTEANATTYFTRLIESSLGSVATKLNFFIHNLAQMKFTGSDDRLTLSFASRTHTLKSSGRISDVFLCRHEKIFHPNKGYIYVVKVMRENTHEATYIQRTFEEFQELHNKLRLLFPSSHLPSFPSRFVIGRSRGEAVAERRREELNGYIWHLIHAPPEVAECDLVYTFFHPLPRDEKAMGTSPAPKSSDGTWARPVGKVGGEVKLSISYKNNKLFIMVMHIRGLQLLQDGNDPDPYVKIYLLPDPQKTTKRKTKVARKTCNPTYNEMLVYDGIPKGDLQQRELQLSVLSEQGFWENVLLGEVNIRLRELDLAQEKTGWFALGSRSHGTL

[32] = system: Phosphatidylinositol 4,5-bisphosphate 3-kinase catalytic subunit alpha isoform (Homo sapiens), P42336 [M1043I]; settings: Compound concentration 1000.0 nM
[33] = target: Phosphatidylinositol 4,5-bisphosphate 3-kinase catalytic subunit delta isoform (Homo sapiens) (UniProt O00329); settings: Compound concentration 1000.0 nM
[34] = target: Phosphatidylinositol 4-phosphate 5-kinase type-1 gamma (Homo sapiens) (UniProt O60331); settings: Compound concentration 1000.0 nM
[35] = target: Phosphatidylinositol 5-phosphate 4-kinase type-2 beta (Homo sapiens) (UniProt P78356); settings: Compound concentration 1000.0 nM
Sequence of Phosphatidylinositol 5-phosphate 4-kinase type-2 beta (Homo sapiens) (P78356 whole entry): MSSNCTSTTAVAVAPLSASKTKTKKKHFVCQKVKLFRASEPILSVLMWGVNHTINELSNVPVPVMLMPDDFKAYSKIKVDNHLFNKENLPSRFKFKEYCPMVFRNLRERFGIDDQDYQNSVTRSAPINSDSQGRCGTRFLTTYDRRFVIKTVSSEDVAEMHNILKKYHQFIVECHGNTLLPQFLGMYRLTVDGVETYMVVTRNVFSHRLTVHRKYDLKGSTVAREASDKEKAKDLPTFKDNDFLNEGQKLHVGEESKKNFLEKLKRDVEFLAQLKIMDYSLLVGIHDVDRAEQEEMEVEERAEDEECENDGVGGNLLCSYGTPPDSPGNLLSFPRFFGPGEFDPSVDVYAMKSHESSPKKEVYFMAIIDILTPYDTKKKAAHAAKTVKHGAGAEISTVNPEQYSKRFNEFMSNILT

[36] = target: Mitogen-activated protein kinase kinase kinase 7 (Homo sapiens) (UniProt O43318); settings: Compound concentration 1000.0 nM
[37] = target: Serine/threonine-protein kinase TAO1 (Homo sapiens) (UniProt Q7L7X3); settings: Compound concentration 1000.0 nM
Sequence of Serine/threonine-protein kinase TAO1 (Homo sapiens) (Q7L7X3 whole entry): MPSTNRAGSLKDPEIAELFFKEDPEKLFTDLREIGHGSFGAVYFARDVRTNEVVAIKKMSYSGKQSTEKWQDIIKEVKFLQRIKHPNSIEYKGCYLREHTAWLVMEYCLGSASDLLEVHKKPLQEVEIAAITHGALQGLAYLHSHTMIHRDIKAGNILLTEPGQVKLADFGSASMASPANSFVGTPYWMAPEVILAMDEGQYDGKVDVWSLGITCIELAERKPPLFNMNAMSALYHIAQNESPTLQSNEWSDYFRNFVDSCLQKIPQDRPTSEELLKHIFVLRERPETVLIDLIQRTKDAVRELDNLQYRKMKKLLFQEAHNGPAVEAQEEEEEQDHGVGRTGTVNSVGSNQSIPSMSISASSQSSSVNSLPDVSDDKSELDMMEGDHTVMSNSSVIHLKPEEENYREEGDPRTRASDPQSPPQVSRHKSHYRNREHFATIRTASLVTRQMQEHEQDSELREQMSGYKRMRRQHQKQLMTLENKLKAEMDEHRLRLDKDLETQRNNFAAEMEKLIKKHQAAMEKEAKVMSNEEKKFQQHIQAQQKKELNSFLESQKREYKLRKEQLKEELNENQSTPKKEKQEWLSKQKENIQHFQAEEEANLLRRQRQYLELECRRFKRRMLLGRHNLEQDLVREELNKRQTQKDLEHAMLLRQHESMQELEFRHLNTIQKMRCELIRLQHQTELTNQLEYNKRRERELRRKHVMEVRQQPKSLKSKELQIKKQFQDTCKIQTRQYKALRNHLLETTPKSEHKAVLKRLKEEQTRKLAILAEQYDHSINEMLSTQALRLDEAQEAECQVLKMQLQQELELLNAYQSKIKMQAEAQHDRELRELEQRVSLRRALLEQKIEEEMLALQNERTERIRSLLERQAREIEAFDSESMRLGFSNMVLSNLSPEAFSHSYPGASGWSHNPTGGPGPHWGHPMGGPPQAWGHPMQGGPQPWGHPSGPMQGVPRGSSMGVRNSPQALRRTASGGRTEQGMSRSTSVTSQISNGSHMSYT

[38] = target: TGF-beta receptor type-1 (Homo sapiens) (UniProt P36897); settings: Compound concentration 1000.0 nM
[39] = target: Tyrosine-protein kinase receptor Tie-1 (Homo sapiens) (UniProt P35590); settings: Compound concentration 1000.0 nM
[40] = target: Activated CDC42 kinase 1 (Homo sapiens) (UniProt Q07912); settings: Compound concentration 1000.0 nM
[41] = target: 5-hydroxytryptamine receptor 1B (Homo sapiens) (UniProt P28222); settings: Compound concentration 10.0 uM
[42] = target: 5-hydroxytryptamine receptor 2B (Homo sapiens) (UniProt P41595); settings: Compound concentration 10.0 uM
[43] = target: Muscarinic acetylcholine receptor M2 (Homo sapiens) (UniProt P08172); settings: Compound concentration 10.0 uM
[44] = target: Muscarinic acetylcholine receptor M3 (Homo sapiens) (UniProt P20309); settings: Compound concentration 10.0 uM

For C[C@H](c1ccc(F)cc1)N(Cc1cccc(C(=O)O)c1)C(=O)c1cnc2ccccc2c1 [PF-05105679], the inhibition [1] was 35%, the inhibition at 10 µM [2] was 32% (not active) and the residual activity [3] was 72%. For the same compound, the residual activity [4] was 100%, the residual activity [5] was 91% and the residual activity [6] was 89%. The residual activity [7] was 100%, the residual activity [8] was 96% and the residual activity [9] was 100%. The residual activity [10] was 100%, the residual activity [11] was 100% and the residual activity [12] was 89%. The residual activity [13] was 100%, the residual activity [14] was 91% and the residual activity [15] was 100%. For the same compound, the residual activity [16] was 97%, the residual activity [17] was 100% and the residual activity [18] was 99%. It also gave a residual activity [19] of 100%, a residual activity [20] of 98% and a residual activity [21] of 40%. It also gave a residual activity [22] of 88%, a residual activity [23] of 100% and a residual activity [24] of 100%. For the same compound, the residual activity [25] was 90%, the residual activity [26] was 100% and the residual activity [27] was 100%. The residual activity [28] was 100%, the residual activity [29] was 100% and the residual activity [30] was 100%. The residual activity [31] was 90%, the residual activity [32] was 100% and the residual activity [33] was 100%. It also gave a residual activity [34] of 100%, a residual activity [35] of 96% and a residual activity [36] of 100%. For the same compound, the residual activity [37] was 100%, the residual activity [38] was 96% and the residual activity [39] was 93%. For the same compound, the residual activity [40] was 100%, the inhibition [41] was 4.38% and the inhibition [42] was 0.7%. The inhibition [43] was 12.6% and the inhibition [44] was -7.68%.

— ChEMBL document CHEMBL4507296 (2021)
